From ChEMBL document CHEMBL3997822, “Asymmetric total synthesis of tetrahydroprotoberberine derivatives and evaluation of their binding affinities at dopamine receptors” (Bioorg Med Chem Lett, 2017) come the findings set out here.

The target in experiment [1] is T1, D(3) dopamine receptor (Homo sapiens, UniProt P35462). As to the kind of experiment: Displacement of [3H]N-methylspiperone from human dopamine D3 receptor after 1 hr. Background: Loss of bound radioactivity is the signal in a displacement assay; it reports binding, not function.
T1 sequence (P35462 whole entry): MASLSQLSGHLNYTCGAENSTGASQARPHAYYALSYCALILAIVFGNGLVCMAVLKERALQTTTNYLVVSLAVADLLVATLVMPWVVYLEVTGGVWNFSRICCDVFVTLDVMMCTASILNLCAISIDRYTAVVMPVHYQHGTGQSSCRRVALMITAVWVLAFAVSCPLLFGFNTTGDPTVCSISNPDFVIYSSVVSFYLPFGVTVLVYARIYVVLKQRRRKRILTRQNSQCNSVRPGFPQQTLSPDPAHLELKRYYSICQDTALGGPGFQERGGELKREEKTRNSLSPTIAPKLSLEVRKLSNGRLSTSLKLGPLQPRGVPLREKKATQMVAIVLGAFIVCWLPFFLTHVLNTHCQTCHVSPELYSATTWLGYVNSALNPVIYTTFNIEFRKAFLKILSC
Experiment [2] deals with T2, D(2) dopamine receptor (Homo sapiens, UniProt P14416). The experiment can be described thus: Displacement of [3H]N-methylspiperone from human dopamine D2 receptor after 1 hr.
T2 sequence (P14416 whole entry): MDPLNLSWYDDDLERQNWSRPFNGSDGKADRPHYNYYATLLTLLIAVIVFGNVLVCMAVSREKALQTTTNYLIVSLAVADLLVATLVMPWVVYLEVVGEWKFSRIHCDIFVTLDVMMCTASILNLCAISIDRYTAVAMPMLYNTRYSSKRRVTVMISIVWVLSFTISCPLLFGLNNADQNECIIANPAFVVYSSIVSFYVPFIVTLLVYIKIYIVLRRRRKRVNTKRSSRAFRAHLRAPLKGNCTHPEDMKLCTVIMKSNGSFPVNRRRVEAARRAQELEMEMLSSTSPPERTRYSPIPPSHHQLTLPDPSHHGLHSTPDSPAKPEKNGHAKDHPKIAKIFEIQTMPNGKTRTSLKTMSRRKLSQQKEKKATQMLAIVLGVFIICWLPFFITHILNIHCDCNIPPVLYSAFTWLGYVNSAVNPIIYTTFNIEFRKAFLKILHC
Experiment [3] deals with T3, D(1B) dopamine receptor (Homo sapiens, UniProt P21918). The experiment can be described thus: Displacement of [3H]SCH23390 from human dopamine D5 receptor after 1 hr.
T3 sequence (P21918 whole entry): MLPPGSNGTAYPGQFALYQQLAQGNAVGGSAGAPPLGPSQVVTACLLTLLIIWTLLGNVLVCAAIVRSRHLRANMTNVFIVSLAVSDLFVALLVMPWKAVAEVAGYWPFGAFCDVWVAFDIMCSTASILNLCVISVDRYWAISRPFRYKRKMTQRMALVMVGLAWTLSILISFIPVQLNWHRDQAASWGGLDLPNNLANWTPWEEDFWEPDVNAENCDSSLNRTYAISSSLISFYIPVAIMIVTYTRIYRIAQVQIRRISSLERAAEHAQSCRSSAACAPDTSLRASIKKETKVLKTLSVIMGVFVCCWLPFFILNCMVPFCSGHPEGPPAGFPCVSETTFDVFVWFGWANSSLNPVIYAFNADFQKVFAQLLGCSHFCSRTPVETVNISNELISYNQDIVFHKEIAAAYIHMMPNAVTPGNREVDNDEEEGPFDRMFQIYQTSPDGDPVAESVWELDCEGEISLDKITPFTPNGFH
Experiment [4] has as its target T4, D(4) dopamine receptor (Homo sapiens, UniProt P21917).
T4 sequence (P21917 whole entry): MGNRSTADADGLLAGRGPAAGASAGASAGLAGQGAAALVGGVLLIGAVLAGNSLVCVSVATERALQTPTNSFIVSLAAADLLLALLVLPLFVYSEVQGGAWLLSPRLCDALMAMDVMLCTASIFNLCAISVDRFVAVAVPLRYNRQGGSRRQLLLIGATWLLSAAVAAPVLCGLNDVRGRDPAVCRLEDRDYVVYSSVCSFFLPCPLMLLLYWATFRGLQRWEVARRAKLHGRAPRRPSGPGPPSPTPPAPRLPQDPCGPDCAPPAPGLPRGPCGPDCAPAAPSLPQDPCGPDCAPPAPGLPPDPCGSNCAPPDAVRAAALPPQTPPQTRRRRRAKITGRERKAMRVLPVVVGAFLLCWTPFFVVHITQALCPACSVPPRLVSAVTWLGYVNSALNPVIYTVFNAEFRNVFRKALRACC
As to the kind of experiment: Displacement of [3H]N-methylspiperone from human dopamine D4 receptor after 1 hr.

Experiment [5] has as its target T5, D(1A) dopamine receptor (Homo sapiens, UniProt P21728). As to the kind of experiment: Displacement of [3H]SCH23390 from human dopamine D1 receptor after 1 hr.
Experiment [6] has as its target T1, D(3) dopamine receptor. As to the kind of experiment: biochemical.
In experiment [7] the target is T5, D(1A) dopamine receptor. The experiment can be described thus: Displacement of [3H]SCH23390 from human 3HA-tagged dopamine D1 receptor expressed in HEK293 cells after 1 hr. In kind it is cell-based.
The target of experiment [8] is T4, D(4) dopamine receptor. As to the kind of experiment: Displacement of [3H]SCH23390 from human dopamine D4 receptor expressed in HEK293 cells after 1 hr. In kind it is cell-based.
Experiment [9] has as its target T2, D(2) dopamine receptor. The experiment can be described thus: Displacement of [3H]SCH23390 from human FLAG-tagged dopamine D2 receptor expressed in HEK293 cells after 1 hr. In kind it is cell-based.
Experiment [10] deals with T3, D(1B) dopamine receptor. Conditions: hek293.

T5 sequence (P21728 whole entry): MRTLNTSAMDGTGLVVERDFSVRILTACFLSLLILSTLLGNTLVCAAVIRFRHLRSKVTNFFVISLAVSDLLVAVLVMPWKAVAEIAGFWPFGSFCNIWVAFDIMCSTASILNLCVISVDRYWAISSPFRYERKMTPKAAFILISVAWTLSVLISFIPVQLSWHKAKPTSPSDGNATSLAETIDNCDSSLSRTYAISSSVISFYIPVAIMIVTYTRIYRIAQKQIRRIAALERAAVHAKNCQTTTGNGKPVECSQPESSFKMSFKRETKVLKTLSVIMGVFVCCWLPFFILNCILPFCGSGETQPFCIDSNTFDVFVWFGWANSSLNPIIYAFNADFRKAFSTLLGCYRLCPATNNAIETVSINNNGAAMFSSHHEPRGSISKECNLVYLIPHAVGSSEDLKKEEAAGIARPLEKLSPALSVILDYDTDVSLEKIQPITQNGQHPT

Turning to `COc1c(O)ccc2c1CN1CCc3cc4c(cc3[C@@H]1C2)OCO4`, the Ki in experiment [1] came to 82.4 nM; in [2], 49.2 nM; in experiment [3], 15.1 nM; in experiment [4] it was 1980 nM; in experiment [5], 6.5 nM.
Take `COc1cc2c(cc1O)CCN1Cc3c(ccc(OC)c3OC)C[C@@H]21`: the Ki is 262 nM in [1]; 42.4 nM in experiment [2]; 313 nM in experiment [3]; above 1000 nM in experiment [4]; 199 nM in [5].
For `COc1cc2c(cc1O)[C@@H]1Cc3ccc(OC)c(OC)c3CN1CC2`, the figures for the Ki in experiment [6], in experiment [7] and in [8] were 37.3 nM, […] and 77.4 nM, respectively.
For `COc1cc2c(cc1OC)[C@@H]1Cc3ccc(O)c(OC)c3CN1CC2`, the inhibition constant Ki in experiment [1] was 1710 nM; in experiment [2], 533 nM; in [3] it was 242 nM; in [4], above 1000 nM; in experiment [5], 107 nM.
In the same order, the values of `COc1ccc2c(c1OC)CN1CCc3cc4c(cc3[C@@H]1C2)OCO4` [CANADINE] are 433 nM, 80.2 nM, 62.1 nM, 486 nM and 48.6 nM.
Turning to `COc1cc2c(cc1OC)[C@@H]1Cc3ccc(OC)c(OC)c3CN1CC2` [TETRAHYDROPALMATINE], the Ki in experiment [7] (hek293) is 153 nM; in experiment [9], 1120 nM; in experiment [8], above 1000 nM; in [10] it was 305 nM.

Broadly, the Ki is the equilibrium dissociation constant of an inhibitor or competing ligand from its target. Higher therefore signals weaker binding.
